{
  "source": "paper PMC9870890",
  "about": "(Nature Communications, 2023)",
  "key": {"[1]": {"target": "T1, M2R (Homo sapiens, UniProt P08172, M139L/M142L/M1T/M248L/M296L/M368L/M456T/M45L)", "T1 construct": "We used a full-length construct M2RFL△8 M for complexing with miniGαo and β-arrestin-1; FLAG (N); 8xHis (C); made in house; host or cells: Sf9 insect cells", "T1 sequence (P08172 1-466 M1T/M45L/M139L/M142L/M248L/M296L/M368L/M456T)": "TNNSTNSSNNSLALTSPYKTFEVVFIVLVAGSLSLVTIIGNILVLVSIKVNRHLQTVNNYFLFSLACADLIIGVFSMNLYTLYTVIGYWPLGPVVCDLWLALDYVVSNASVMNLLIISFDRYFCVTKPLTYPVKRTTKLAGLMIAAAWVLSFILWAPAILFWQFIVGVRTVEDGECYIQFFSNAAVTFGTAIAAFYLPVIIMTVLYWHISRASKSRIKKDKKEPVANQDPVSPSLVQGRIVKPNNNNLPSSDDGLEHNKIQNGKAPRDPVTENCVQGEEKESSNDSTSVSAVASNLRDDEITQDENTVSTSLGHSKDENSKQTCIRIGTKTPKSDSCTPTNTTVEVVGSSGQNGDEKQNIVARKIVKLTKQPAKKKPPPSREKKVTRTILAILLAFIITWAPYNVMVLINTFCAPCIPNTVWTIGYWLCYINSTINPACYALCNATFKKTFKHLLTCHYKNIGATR", "type": "biochemical", "details": "100 μM Ixo or 1 mM carbachol", "procedure": "We used a full-length construct M2RFL△8 M for complexing with miniGαo and β-arrestin-1. The receptor was purified as described above for cryo-EM sample. Excess GRK2 was mixed with the M2R in a buffer composed of 20 mM HEPES pH 7.5, 100 mM NaCl, 0.01% MNG, 0.003% CHS, 500 μM ATP in the presence and absence of 100 μM Ixo or 1 mM carbachol to initiate the phosphorylation at room temperature. The extent of phosphorylation at various time points (from 0 to 120 min) was evaluated by Pro-Q and Coomassie blue staining. The final phosphorylated receptor (Ixo-bound) was further evaluated by ion-exchange chromatography. The complex formation test was performed as follows: unphosphorylated Ixo-bound M2RFL△8 M or phosphorylated M2RFL△8 M was mixed with miniGαo or β-arrestin-1, respectively and incubated on ice for 30 min. The receptor alone or mixed complex sample were then analyzed by SEC against 20 mM HEPES pH 7.5, 100 mM NaCl, 0.01% MNG, 0.003% CHS in the presence of 10 μM Ixo."}, "[2]": {"target": "M2 muscarinic receptor (M2R), wild type (human) (UniProt P08172)"}, "[3]": {"target": "T2, M2R (Homo sapiens, UniProt P08172)", "T2 sequence (P08172 1-466)": "T1 sequence (P08172 1-466 M1T/M45L/M139L/M142L/M248L/M296L/M368L/M456T) with T1M, L45M, L139M, L142M, L248M, L296M, L368M, T456M"}, "[4]": {"target": "T2, M2R", "test": "cell-based", "set-up": "expressed in transfected cells; host or cells: HEK 293T", "details": "for Emax: HEK-293T", "procedure": "Determination of β-arrestin-2 recruitment was performed applying the PathHunter assay (DiscoverX, Birmingham, U.K.) which is based on fragment complementation of β-galactosidase as described. In detail, HEK293T cells were transfected with the flag-tagged M2 receptor carrying the PKA fragment for enzyme complementation and transferred into 384-well micro plates. […] Determination of chemoluminescence was done with a Clariostar plate reader (BMG, Ortenberg, Germany). […] Normalized curves from three to five individual experiments each done in duplicate were analyzed by non-linear regression applying the algorithms in Prism 8.0 (GraphPad, San Diego, CA) to get dose-response curves representing average EC50 and Emax value."}, "[5]": {"target": "T3, M2R and GoA (Homo sapiens, UniProt P08172)", "T3 construct": "FLAG (N); 8xHis (C); made in house; host or cells: Sf9 insect cells (receptor)", "test": "GTPase-Glo assay (GTP turnover) with purified M2R and GoA", "type": "biochemical", "details": "purified wild-type receptor and G-protein", "procedure": "The receptors for GTPase-Glo^TM assay were expressed and purified as described above and frozen at −80 °C before use. […] The GTPase reaction was incubated at room temperature (22–25 °C) for different times (15–90 min). […] After incubation, 5 μL reconstituted 1xGTPase-Glo^TM Reagent (Promega) was added to the completed GTPase reaction, mixed briefly and incubated with shaking for 30 min at room temperature (22–25 °C) to convert the remaining GTP into ATP. Then 10 μL Detection Reagent (Promega) was added to the system and incubated for 5-10 min at room temperature (22–25 °C) to convert the ATP into luminescent signals. Luminescence intensity was quantified using a Multimode Plate Reader (PerkinElmer) luminescence counter."}},
  "note": "Changes are numbered by the printed parent chain. Values joined by “and” are separate entries in the source; they are usually repeats but may differ in a detail not shown here. Identical values can stand only once. Like-named read-outs stand apart in the source and are kept apart here.",
  "data": [
    {"compound": "C[N+](C)(C)CCOC(N)=O", "note": "[Carbachol, carbachol]", "values": [
      {"measurement": "Phosphorylation intensity", "setting": "[1]; Time 5 min", "result": 334.849},
      {"measurement": "Phosphorylation intensity", "setting": "[1]; Time 10 min", "result": 686.698},
      {"measurement": "Phosphorylation intensity", "setting": "[1]; Time 15 min", "result": 1559.5},
      {"measurement": "Phosphorylation intensity", "setting": "[1]; Time 30 min", "result": 4508.03},
      {"measurement": "Phosphorylation intensity", "setting": "[1]; Time 60 min", "result": 11137.8},
      {"measurement": "Phosphorylation intensity", "setting": "[1]; Time 120 min", "result": 15286}
    ]},
    {"compound": "heterotrimeric GoA protein (from UniProt P09471 1-354; P62873 2-340; P59768 1-71) (complex)", "values": [
      {"measurement": "increase of the affinity of ACh in [3H]-NMS competition binding on M2R in HDL particles on addition of GoA", "setting": "[2]", "result": 65, "unit": "fold"},
      {"measurement": "increase of the affinity of Ixo in [3H]-NMS competition binding on M2R in HDL particles on addition of GoA", "setting": "[2]", "result": 27, "unit": "fold"}
    ]},
    {"compound": "Cc1c(Cl)c(OCC(=O)N2CCN(C)CC2)nc2sc(C(=O)NC3CC3)c(N)c12", "note": "[LY2119620]", "values": [
      {"measurement": "activation of the receptor by the modulator on its own", "setting": "[3]", "result": "can activate the receptor on its own with low efficacy"},
      {"measurement": "IP accumulation as % max effect of acetylcholin", "setting": "[3]; LY2119620 alone log [M] -4", "result": "59.0% and 70.9% and 76.8% and 52.3% and 51.5% and 62.7% and 67.1%"},
      {"measurement": "IP accumulation as % max effect of acetylcholin", "setting": "[3]; LY2119620 alone log [M] -10", "result": "3.3% and -1.8% and -2.5% and -3.4% and 3.1%"},
      {"measurement": "inhibition of maximal G-protein activation of both orthosteric agonists", "setting": "[3]; high concentrations of LY2119620", "result": "~ 10%"},
      {"measurement": "Emax", "setting": "[4]; read-out: arrestin recruitment as % max effect of acetylcholin, LY2119620 log [M] 3-4", "result": 46.3, "unit": "%"},
      {"measurement": "Emax", "setting": "[4]; read-out: arrestin recruitment as % max effect of acetylcholin, LY2119620 log [M] 3-5", "result": 52.5, "unit": "%"},
      {"measurement": "Emax", "setting": "[4]; read-out: arrestin recruitment as % max effect of acetylcholin, LY2119620 log [M] -5", "result": 42.1, "unit": "%"},
      {"measurement": "arrestin recruitment as % max effect of acetylcholin", "setting": "[4]; LY2119620 log [M] 3-4", "result": 48.9, "unit": "%"},
      {"measurement": "arrestin recruitment as % max effect of acetylcholin", "setting": "[4]; LY2119620 log [M] 3-5", "result": "50.0% and 48.5%"},
      {"measurement": "arrestin recruitment as % max effect of acetylcholin", "setting": "[4]; LY2119620 log [M] 3-7", "result": "-0.0286% and 2.4%"},
      {"measurement": "arrestin recruitment as % max effect of acetylcholin", "setting": "[4]; LY2119620 log [M] -4", "result": "58.7% and 38.0% and 68.2% and 60.8% and 51.7%"},
      {"measurement": "arrestin recruitment as % max effect of acetylcholin", "setting": "[4]; LY2119620 log [M] -5", "result": "33.4% and 43.9% and 30.6% and 32.3%"},
      {"measurement": "arrestin recruitment as % max effect of acetylcholin", "setting": "[4]; LY2119620 log [M] -6", "result": "10.6% and 7.5% and 6.2% and 2.4% and 3.8%"},
      {"measurement": "arrestin recruitment as % max effect of acetylcholin", "setting": "[4]; LY2119620 log [M] -7", "result": "2.1% and 1.5% and 2.0% and 0.9% and 2.9%"},
      {"measurement": "arrestin recruitment as % max effect of acetylcholin", "setting": "[4]; LY2119620 log [M] -8", "result": "0.6% and 0.5% and 0.9% and -0.171% and -0.548%"},
      {"measurement": "arrestin recruitment as % max effect of acetylcholin", "setting": "[4]; LY2119620 log [M] -9", "result": "1.3% and -0.4% and -1.2% and -3.6%"},
      {"measurement": "effect on GTP-turnover for both ACh and Ixo", "setting": "[5]", "result": "significant inhibitory effects"}
    ]}
  ]
}
